Source: article PMC9926234, “Iterative computational design and crystallographic screening identifies potent inhibitors targeting the Nsp3 macrodomain of SARS-CoV-2” (Proceedings of the National Academy of Sciences of the …, 2023)
Values joined by “and” are separate entries in the source; they are usually repeats but may differ in a detail not shown here. Equal entries are not always repeated. Where two headings read alike, the source gives them in different places.

Tests used:
[1] = target: T1, SARS-CoV-2 NSP3 Mac1 (Severe acute respiratory syndrome coronavirus 2, UniProt P0DTD1); type: binding; parameters: contains a conserved macrodomain enzyme (Mac1); conditions: for Spearman est (compound concentration vs apparent Tm): DSF dose responsiveness, 1 µM nsp3 mac1, adj p given
In short: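 ΔTma values are thermal shifts relative to a co-located DMSO-only control, read with 5 µM Fluorescent Yellow dye. Each compound was tested in triplicate over seven concentrations (two-fold steps, top 1,000 or 100 μM). Spearman correlation of concentration versus ΔTma tested whether the shift was dose-responsive.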

[2] = target: T1, SARS-CoV-2 NSP3 Mac1; type: binding; conditions: for Refined occupancy: ligand occupancy after refinement (phenix.refine)
[3] = maximal thermal upshift vs DMSO control
[4] = overall hit flag: binding in crystallographic soaking or the HTRF-based binding assay
[5] = PanDDA 1-BDC value of the event, crystal soak, compound concentration 100 mM, per dataset
[6] = PanDDA event map, 1 minus background density correction, crystal soaking of Mac1
[7] = crystal soak, compound concentration 100 mM, per dataset
[8] = PanDDA 1-BDC (background density correction) of the event, crystal soak 100 mM, PanDDA run dmso_34
[9] = crystal soak, compound concentration 100 mM, PanDDA run dmso_34, series docking_lead-like_1
[10] = ligand modeled in the crystal structure, crystal soak 100 mM, PanDDA run dmso_34
[11] = ligand modeled in the crystal structure, crystal soak, compound concentration 100 mM, per dataset
[12] = true hit = binding in crystallographic soaking or the HTRF-based binding assay
[13] = ligand modeled from this dataset, compound concentration 100 mM

Compound | DSF max dTma [1, 3] [°C] | HIT* [2, 4] | Spearman est (compound concentration vs apparent Tm) [1] | 1-BDC [2, 6] | Refined occupancy ([2]; crystal soaking of Mac1) | 1-BDC [2, 8] | PanDDA hit? [2, 9] | Modeled? [2, 10] | DSF max dTma ([1]; maximal thermal upshift) | HIT* [2, 12] | other results
O=C1CCCN1CCSc1ncnc2[nH]cnc12 [Z9920] | 0.95 | Y |  |  |  |  |  |  |  |  | 
Cc1ccc(-c2nc(Cn3cnc4c(N)nc(N)nc43)cs2)o1 [Z4718398580] | 0.71 | Y | 0.74 | 0.45 | 60 |  |  |  |  |  | 1-BDC [2, 5]: 0.28; 1-BDC ([2]; PanDDA event map, 1-BDC of the hit dataset, crystal soak, compound concentration 100 mM, listed as Z8580): 0.35 and 0.45; PanDDA hit? [2, 7]: TRUE; Modeled? ([2]; ligand modeled from this dataset, crystal soak, compound concentration 100 mM): TRUE
N#Cc1ccc(OCCn2cnc3c(N)ncnc32)cc1 [ZINC000043461211] | 0.45 | Y | 0.26 | 0.31 | 62 | 0.31 | TRUE | TRUE |  |  | 
Nc1ncnc2c1ncn2Cc1cccc(C(F)(F)F)c1 [ZINC000110510893] | 0.5 | Y | 0.5 | 0.35 | 70 | 0.35 | TRUE | TRUE |  |  | 
Nc1ncnc(N2CCC(Oc3ccncc3)C2)c1Cl (stereo not drawn) [ZINC000302059710] | 0 | Y | −0.85 | 0.13 | 26 |  |  |  |  |  | 1-BDC ([2]; PanDDA event map background density correction, crystal soak, Compound_concentration 100 mM, PanDDA run dmso_34): 0.13; PanDDA hit? ([2]; crystal soak, Compound_concentration 100 mM, Echo dispense 40 nl, PanDDA run dmso_34): TRUE; Modeled? ([2]; ligand modeled in crystal structure, crystal soak, Compound_concentration 100 mM, PanDDA run dmso_34): TRUE
Nc1ncnc2c1ncn2Cc1ccc(Cl)cn1 [ZINC000559260078] | 0.98 | Y | 0.88 | 0.15 | 30 | 0.15 | TRUE | TRUE |  |  | 
Cc1ccc([C@@H]2C[C@@H](C)CCN2C(=O)c2ncnc3[nH]ccc23)o1 [ZINC000611664196] |  |  | −0.75 | 0.05 | 10 |  |  |  | 0.14 ˚C | Y | 1-BDC [2, 5]: 0.05; PanDDA hit? [2, 7]: TRUE; Modeled? [2, 11]: TRUE
Nc1ncnc2c1ncn2Cc1cc(-c2ccco2)on1 [ZINC000681764827] | 0.63 | Y | 0.38 | 0.16 | 50 | 0.16 | TRUE | TRUE |  |  | 
O=C(c1ncnc2[nH]ccc12)N1CC=CC12CCCCC2 [ZINC000827900828] | 0.93 | Y | −0.37 | 0.18 | 36 | 0.18 | TRUE | TRUE |  |  | 
C[C@H]1CN(C(=O)c2cccc3[nH]c(=O)oc23)C[C@@H]1C(=O)O [ZINC000833624464] |  |  | −0.44 |  | 16 |  |  |  | 0.3 ˚C | Y | 1-BDC (PanDDA) [2, 6]: 0.08; Modeled? [2, 13]: TRUE
Cc1nnc(CNc2cnc(N)c(Cl)n2)n1C1CC1 [ZINC000893101964] |  |  | −0.12 | 0.04 | 8 |  |  |  | 0.12 ˚C | Y | 1-BDC [2, 5]: 0.04; PanDDA hit? [2, 7]: TRUE; Modeled? [2, 11]: TRUE
CC(CSc1nnc2[nH]cnn12)c1ccccc1 (stereo not drawn) [ZINC000920153280] | 0 | Y | −0.66 | 0.2 | 40 | 0.2 | TRUE | TRUE |  |  | 
Cc1noc(-c2ccnc(-c3ccnc4[nH]ccc34)c2)n1 [ZINC001240411747] |  |  | −0.16 |  | 14 |  |  |  | 0.04 ˚C | Y | 1-BDC (PanDDA) [2, 6]: 0.07; Modeled? [2, 13]: TRUE
Cc1cc(S(=O)(=O)N2CCC[C@H](C(N)=O)C2)cnc1N [ZINC001364774273] |  |  | 0.3 | 0.1 | 20 |  |  |  | 0.21 ˚C | Y | 
CN(Cc1nnc2c(=O)[nH]ccn12)c1ccc2nccnc2n1 [ZINC001472868186] | 0.81 | Y | 0.79 | 0.15 | 30 |  |  |  |  |  | 1-BDC ([2]; PanDDA event map, crystal soak, Compound_concentration 30 mM, PanDDA run dmso_34): 0.15; PanDDA hit? ([2]; crystal soak, Compound_concentration 30 mM, Echo dispense 40 nl, PanDDA run dmso_34): TRUE; Modeled? ([2]; ligand modeled in structure, crystal soak, Compound_concentration 30 mM): TRUE
